Measured values as given in ChEMBL document CHEMBL1134452, “Novel inhibitors of mitochondrial respiratory chain: endoperoxides from the marine tunicate Stolonica socialis” (J Med Chem, 2001).

Assay: Compound was tested for inhibitory activity on mitochondrial electron transport using submitochondrial particles (SMP) from beef heart.
Format: functional, Bos taurus

## C=CCC/C=C/C=C/CCCCCC[C@H]1CC[C@H]([C@@H]2CC[C@@H](CC(=O)OC)OO2)O1
  IC50: < 1 µM

## C=CCC/C=C/C=C/CCCCCC[C@@H]1CC[C@@H]([C@@H]2CC[C@@H](CC(=O)OC)OO2)O1
  IC50: < 1 µM
